Results published in publication PMC12775819, “Optimizing PSMA-617-based inhibitors through charged linker modifications: Insights into structure-activity relationships” (Theranostics, 2026).
Non-standard residues stand in square brackets, D forms with d. Residues, ends and D or L forms follow the SMILES beside them. *: point of attachment. DOTA = O=C(O)CN1CCN(CC(=O)O)CCN(CC(=O)*)CCN(CC(=O)O)CC1; EuK = O=C(O)CC[C@H](NC(=O)N[C@@H](CCCCN*)C(=O)O)C(=O)O; 2Nal = N[C@@H](Cc1ccc2ccccc2c1)C(=O)O; Trx = NC[C@H]1CC[C@H](C(=O)O)CC1

Legend:
[1] = Partition coefficient (logD), n-octanol/PBS pH 7.4; type: physicochemical; details: 68Ga-labeled compounds, mean ± SD; for logD: read-out: Partition Coefficient [logDoctanol/PBS]
Procedure: To determine the lipophilicity expressed as distribution coefficient (logD), a two-phase system of n-octanol (500 µl) and phosphate buffered saline (PBS) (490 µl) at pH 7.4 was used (n = 4). Compounds were radiolabeled with [^68Ga]Ga^3+ and the mixture diluted to a concentration of 0.25 µM in PBS. 10 µl of the 0.25 µM dilution were added to the n-octanol / PBS mixture. After extensive mixing, the 2-phase system was centrifuged for 10 min at 14,000 rpm and 4 °C. Two samples from each phase (100 µl) were taken and measured in a γ-gamma counter (PerkinElmer, Waltham, USA). […] The data is presented as the mean value with the standard deviation (SD).

[2] = target: T1, PSMA (Homo sapiens, UniProt Q04609); assay: Competitive cell binding (IC50) against [68Ga]Ga-PSMA-10 on LNCaP cells; details: unlabeled precursors vs [68Ga]Ga-PSMA-10 (0.8 nM), 45 min, room temperature, ± SD
T1 construct: incubated with [^68Ga]Ga-PSMA-10 (0.8 nM) and LNCaP cells (10^5 cells/well) for 45 min at room temperature; host or cells: LNCaP (human prostate carcinoma lymph node metastasis)
T1 sequence (Q04609 whole entry): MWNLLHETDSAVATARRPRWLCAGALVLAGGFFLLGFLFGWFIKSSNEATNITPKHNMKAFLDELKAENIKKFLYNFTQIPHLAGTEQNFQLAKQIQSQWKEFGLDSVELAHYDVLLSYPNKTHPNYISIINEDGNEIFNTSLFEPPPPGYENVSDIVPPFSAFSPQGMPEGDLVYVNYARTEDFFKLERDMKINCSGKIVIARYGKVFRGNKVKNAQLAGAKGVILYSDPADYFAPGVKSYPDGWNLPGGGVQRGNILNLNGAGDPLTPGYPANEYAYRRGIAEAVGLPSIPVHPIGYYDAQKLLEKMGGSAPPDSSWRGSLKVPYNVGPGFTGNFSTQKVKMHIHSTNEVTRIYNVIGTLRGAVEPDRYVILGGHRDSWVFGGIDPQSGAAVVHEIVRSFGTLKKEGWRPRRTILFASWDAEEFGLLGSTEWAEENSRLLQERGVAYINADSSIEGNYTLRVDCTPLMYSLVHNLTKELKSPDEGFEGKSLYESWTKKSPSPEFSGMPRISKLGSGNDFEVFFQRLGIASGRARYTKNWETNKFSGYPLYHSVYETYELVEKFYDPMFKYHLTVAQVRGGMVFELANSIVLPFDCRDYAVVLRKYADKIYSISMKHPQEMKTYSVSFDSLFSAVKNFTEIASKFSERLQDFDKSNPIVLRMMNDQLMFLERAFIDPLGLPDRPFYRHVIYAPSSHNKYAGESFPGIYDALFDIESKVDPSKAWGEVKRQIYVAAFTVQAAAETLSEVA
Procedure: (§1) The PSMA-positive human cell line LNCaP (human lymph node carcinoma of the prostate; ATCC CRL-1740) was cultivated adherently at 37 °C and humidified 5% CO2 with RPMI-1640 (Thermo Fisher Scientific, Germany) supplemented with 10% fetal bovine serum (Sigma-Aldrich, Germany), 1% sodium pyruvate (Life Technologies, Germany) and 1% penicillin/[…] (Thermo Fisher Scientific, Germany). A mixture of trypsin/ethylenediaminetetraacetic acid (0.05% / 0.02%; Thermo Fisher Scientific, Germany) was used for cell harvesting (last authentication: April 2024).
To determine the binding affinity of the investigated compounds, competitive cell binding studies were performed with ^68Ga-labeled PSMA-10. Dilution series of twelve concentrations in medium were prepared from the precursor peptides PS1 - PS11 including concentrations of 0, 0.5, 1, 2.5, 5, 10, 25, 50, 100, 500, 1,000, and 5,000 nM. The assay was performed on 96-well filter plates (Merck, Darmstadt, Germany). Medium (100 µl per well) was added before the experiment and incubated for 1 h at room temperature to block non-specific binding. The medium was removed and the diluted compounds were incubated with [^68Ga]Ga-PSMA-10 (0.8 nM) and LNCaP cells (10^5 cells/well) for 45 min at room temperature (total volume 100 µl/well). Cells were washed with PBS buffer (2× 100 µl, 1× 200 µl) over a MultiScreen 96-well vacuum filtration system (Merck Millipore, Billerica, USA). The filters containing the retained cells were punched out and the radioactivity was quantified using a γ-counter. By applying a non-linear regression algorithm (GraphPad Prism 8.0.1., Boston, USA), the specific inhibitory concentration of 50% (IC50) could be determined. The experiment was repeated at least three times per compound and the data presented as IC50 ± standard deviation.

[3] = test system: PSMA-positive LNCaP cells; assay: Surface binding and internalization of 68Ga-labeled compounds; type: cell-based, human; details: for Internalization Block / Surface Binding Block / Internalization / Surface Binding: 30 nM, 45 min, 37 °C; for Internalization Block / Surface Binding Block: blocked with 2-PMPA 500 µM; for Internalization / Surface Binding: unblocked; for Specific Internalization / Specific Surface Binding: difference of unblocked and blocked values
Procedure: as §1
Internalization assays were performed on poly-L-lysine coated 24-well cell culture plates. The day before the experiment, LNCaP cells (10^5 cells/well) were harvested and seeded to the wells. The cells were incubated with the ^68Ga-labeled compounds (250 µl, 30 nM, diluted in RPMI medium) for 45 min at 37 °C. […] The medium was then removed and the cells washed with ice-cold PBS buffer (3 × 1 ml). To remove surface bound compounds, ice-cold glycine buffer (2 × 0.5 ml, 50 mM, pH 2.8) was added to the wells and collected after 5 min in a combined fraction. After washing once with PBS (1 ml), NaOH (0.5 ml, 0.3 M) was added to the cells for lysation. Collected surface-bound, internalized fractions and standards from the stock solutions (25 µl) were measured in a γ-counter. Data was normalized and presented as percentage of the initially added radioactivity bound to 10^5 cells [%IA/10^5 cells].

[4] = in vivo; details: male, BALB/c nu/nu, mouse, iv, 500 pmol, total radioactivity
[5] = test system: LNCaP xenograft-bearing BALB/c nu/nu mice; assay: Static small-animal PET imaging 1 h and 2 h p.i.; details: 68Ga-labeled, 0.5 nmol i.v., n = 1, SD from VOIs
[6] = Static small-animal PET imaging 1 h and 2 h p.i.; details: male, BALB/c nu/nu, mouse, tumor (LNCaP xenograft), iv, 500 pmol, total radioactivity, SUV tumor, 68Ga-labeled, 0.5 nmol i.v., n = 1, SD from VOIs

logD [1]	IC50 [2]	SUV at 1 h ([4]; SUV kidneys)	SUV at 2 h ([4]; SUV kidneys)	SUV at 1 h ([4]; SUV muscle)	SUV at 2 h ([4]; SUV muscle)	SUV at 1 h ([4]; SUV tumor)	SUV at 2 h ([4]; SUV tumor)	Compound	Internalization Block [3]	Surface Binding Block [3]	Internalization [3]	Surface Binding [3]	Specific Internalization [3]	Specific Surface Binding [3]	also measured
-3.6 ± 0.3	37 ± 11.4 nM	3.05 ± 0.01 SUV	1.56 ± 0.13 SUV	0.13 ± 0.03 SUV	0.1 ± 0.01 SUV	0.93 ± 0.08 SUV	0.92 ± 0.06 SUV	O=C(O)CC[C@H](NC(=O)N[C@@H](CCCCNC(=O)[C@H](Cc1ccc2ccccc2c1)NC(=O)[C@H]1CC[C@H](CNC(=O)[C@H](Cc2c[nH]cn2)NC(=O)[C@H](CCC(=O)O)NC(=O)[C@H](Cc2c[nH]cn2)NC(=O)[C@H](CCC(=O)O)NC(=O)[C@H](Cc2c[nH]cn2)NC(=O)[C@H](CCC(=O)O)NC(=O)CN2CCN(CC(=O)O)CCN(CC(=O)O)CCN(CC(=O)O)CC2)CC1)C(=O)O)C(=O)O [PS3, EuK-NaI-ChX-(HE)3-DOTA] ({DOTA}-EHEHEH[Trx][2Nal]-EuK)	0.112 ± 0.022 %Binding / %Internalization	0.069 ± 0.129 %Binding / %Internalization	0.67 ± 0.14 %Binding / %Internalization	1.32 ± 0.11 %Binding / %Internalization	0.56 ± 0.42 %Binding / %Internalization	1.26 ± 1.97 %Binding / %Internalization	
-3.74 ± 0.05	46.7 ± 37.3 nM	3.13 ± 0.16 SUV	2.37 ± 0.27 SUV	0.12 ± 0.02 SUV	0.09 ± 0.02 SUV	0.86 ± 0.06 SUV	0.94 ± 0.07 SUV	O=C(O)CC[C@H](NC(=O)N[C@@H](CCCCNC(=O)[C@H](Cc1ccc2ccccc2c1)NC(=O)[C@H]1CC[C@H](CNC(=O)[C@H](Cc2c[nH]cn2)NC(=O)[C@H](CCC(=O)O)NC(=O)[C@H](Cc2c[nH]cn2)NC(=O)[C@H](CCC(=O)O)NC(=O)[C@H](Cc2c[nH]cn2)NC(=O)[C@H](CCC(=O)O)NC(=O)[C@H](Cc2c[nH]cn2)NC(=O)[C@H](CCC(=O)O)NC(=O)CN2CCN(CC(=O)O)CCN(CC(=O)O)CCN(CC(=O)O)CC2)CC1)C(=O)O)C(=O)O [PS5, EuK-NaI-ChX-(HE)4-DOTA] ({DOTA}-EHEHEHEH[Trx][2Nal]-EuK)	0.155 ± 0.022 %Binding / %Internalization	0.082 ± 0.029 %Binding / %Internalization	0.67 ± 0.06 %Binding / %Internalization	1.41 ± 0.10 %Binding / %Internalization	0.51 ± 0.25 %Binding / %Internalization	1.33 ± 0.42 %Binding / %Internalization	
	21.8 ± 3.13 nM							O=C(O)CC[C@H](NC(=O)N[C@@H](CCCCNC(=O)[C@H](Cc1ccc2ccccc2c1)NC(=O)[C@H]1CC[C@H](CNC(=O)CN2CCN(CC(=O)O)CCN(CC(=O)O)CCN(CC(=O)O)CC2)CC1)C(=O)O)C(=O)O [PSMA-617, EuK-NaI-ChX-DOTA]	0.210 ± 0.036 %Binding / %Internalization	0.062 ± 0.013 %Binding / %Internalization	0.50 ± 0.05 %Binding / %Internalization	0.79 ± 0.13 %Binding / %Internalization	0.28 ± 0.27 %Binding / %Internalization	0.72 ± 0.38 %Binding / %Internalization	Partition Coefficient [logDoctanol/PBS] [1]: -2.7 ± 0.2; SUV kidneys ([5]; static PET 1 h p.i.): 1.25 ± 0.14 g/mL; SUV muscle ([5]; static PET 1 h p.i.): 0.073 ± 0.004 g/mL; SUV tumor ([5]; static PET 1 h p.i.): 0.63 ± 0.02 g/mL; SUV kidneys ([5]; static PET 2 h p.i.): 0.28 ± 0.06 g/mL; SUV muscle ([5]; static PET 2 h p.i.): 0.02 ± 0.01 g/mL; SUV tumor ([5]; static PET 2 h p.i.): 0.52 ± 0.16 g/mL
								O=C(O)CC[C@H](NC(=O)N[C@@H](CCCCNC(=O)[C@H](Cc1c[nH]cn1)NC(=O)[C@H](CCC(=O)O)NC(=O)[C@H](Cc1c[nH]cn1)NC(=O)[C@H](CCC(=O)O)NC(=O)[C@H](Cc1c[nH]cn1)NC(=O)[C@H](CCC(=O)O)NC(=O)[C@H](Cc1ccc2ccccc2c1)NC(=O)[C@H]1CC[C@H](CNC(=O)CN2CCN(CC(=O)O)CCN(CC(=O)O)CCN(CC(=O)O)CC2)CC1)C(=O)O)C(=O)O [[^68Ga]Ga-PS1, metal not drawn] ({DOTA-Trx}-[2Nal]EHEHEH-EuK)							SUV at 1 h ([6]; static PET 1 h p.i.): 0.43 ± 0.06 SUV; SUV at 2 h ([6]; static PET 2 h p.i.): 0.3 ± 0.11 SUV
